Results on seven compounds are retold here after patent US8975232B2, “Macrocyclic kinase inhibitors and uses thereof” (President and Fellows of Harvard College, priority 2010, dated 2015).

Each structure is given as a SMILES string. “And” between values parts separate entries of the source, which are not always exact repeats. Identical values can stand only once. Bounds are passed on as bounds.

Experiment [1] has as its system 3T3 cells (src−/−) stably transfected with c-Src Y529F. Description: Global phosphotyrosine Western blot (4G10) in c-Src Y529F-transfected cells. The class given is cell-based, murine. Here is the method:
Cells were cultured in 48-well tissue culture plates in DMEM+10% FBS until they reached confluence. After removing serum-containing medium, cells were washed with serum-free DMEM, and small molecule inhibitor in serum-free DMEM with 2% DMSO was added to each well and incubated overnight. After incubation with compound, cells were washed once with PBS and lysed in Cell Extraction Buffer (Invitrogen), a modified RIPA buffer, supplemented with PMSF and protease inhibitors according to the manufacturer's instruction. Cell lysates were quantified by BCA assay (Pierce Biotechnology) and an equivalent amount of lysate was loaded into each lane of a 4-12% polyacrylamide gel, and separated by SDS-PAGE. Separated proteins were transferred onto a PVDF membrane, and blocked for one hour with 5% BSA in TBST buffer. The membrane was then incubated overnight at 4° C. with 4G10 anti-phosphotyrosine antibody (Millipore) and a β-tubulin antibody (Sigma) as a loading control. Fluorescent anti-mouse and anti-rabbit secondary antibodies (LI-COR) were added prior to imaging the membrane.
Having obtained macrocycle Src kinase inhibitors with nanomolar in vitro potency, the potency for inhibition of Src kinase activity in living cells was assessed. Since intracellular Src kinase signaling is complex and tightly regulated, a cell culture line transfected with a constitutively active form of murine c-Src was chosen. 3T3 cells (src−/−) stably transfected with c-Src Y529F were compared to 3T3 cells (src−/−) transfected with empty vector. Anti-phosphotryosine Western blotting with the 4G10 antibody (Millipore) indicated a marked difference between global phosphotyrosine levels in the c-Src Y529F transfected cells compared to those transfected with empty vector; in fact, almost all detectable intracellular phosphotyrosine in the Src-transfected cell line was a result of c-Src Y529F and downstream signaling (FIG. 23, upper panel, compare lanes 2 and 3, transfected and trated with DMSO, against lanes 8 and 9, transfected with empty vector).
Briefly, cells were seeded in a 48-well plate and grown to confluence in Dulbecco's Modified Eagle Medium (DMEM) supplemented with 10% fetal bovine serum (FBS). Individual wells were then treated with 10 or 100 μM concentration of macrocycle in serum-free DMEM overnight. After removing the small molecule and washing with phosphate-buffered saline, cells were lysed in radioimmunoprecipitation assay (RIPA) buffer, and global phosphotyrosine levels were quantified by Western blot.

For experiment [2], the target named is T1, full-length chicken c-Src (Gallus gallus, UniProt P00523).
T1 construct: assayed against full-length chicken c-Src
The experiment in a line: Z'-LYTE kinase assay (Tyr 02 substrate peptide), full-length c-Src. The class given is biochemical. The conditions noted are these: for IC50: full-length chicken c-Src, ATP near KM (50 μM). On the procedure: (§1) For the FRET-based endpoint assay, kinase assays were performed using Invitrogen's Z′-LYTE kinase assay using the Tyr 02 substrate peptide (based upon the optimal Abl substrate peptide […]) according to the manufacturer's instructions. Assays were performed at near KM ATP concentrations for full-length c-Src and full-length c-Src T338I-50 μM and 7 μM, respectively.
Derivatives of MC4 were synthesized by Fmoc solid-phase peptide synthesis and assayed against full-length chicken c-Src using Invitrogen's Z′-LYTE kinase assay. […] Holding the amino acids at the A and C positions constant, variants of MC4 containing phenylalanine, cyclohexylalanine, pentafluorophenylalanine, and N-methyl-phenylalanine at the B position in place of furylalanine were synthesized and assayed.

Experiment [3] deals with T2, Lck (Mus musculus, UniProt P06240).
T2 construct: murine Lck (residues 227-509); made in house
T2 sequence (P06240 227-509): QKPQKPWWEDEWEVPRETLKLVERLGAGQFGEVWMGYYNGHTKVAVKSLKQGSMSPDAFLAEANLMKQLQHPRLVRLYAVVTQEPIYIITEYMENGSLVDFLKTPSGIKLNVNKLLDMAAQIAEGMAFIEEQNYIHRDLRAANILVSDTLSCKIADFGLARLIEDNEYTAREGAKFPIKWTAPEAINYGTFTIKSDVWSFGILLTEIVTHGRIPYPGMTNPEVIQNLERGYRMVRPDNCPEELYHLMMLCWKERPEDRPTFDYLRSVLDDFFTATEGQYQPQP
The experiment in a line: Continuous spectrophotometric kinase activity assay. The class given is biochemical, murine. The text has this: (§2) Kinase domain constructs of human c-Abl (residues 229-512), chicken c-Src (residues 251-533 and residues 83-533), murine Lck (residues 227-509), and human Hck (residues 166-445) were expressed as previously described (Seeliger, Young et al. 2005; Seeliger, Nagar et al. 2007; the entire contents of each of which are incorporated by reference herein). Mutations were introduced into chicken c-Src (residues 251-533) (T338I, C277Q, L297M) by site-directed mutagenesis and verified by DNA sequencing.
(§3) In vitro kinase inhibition assays were performed using either a continuous spectrophotometric assay or a FRET-based endpoint assay.
(§4) The original characterization of kinase inhibition was performed with a commercial kinase assay that relies on a fluorescently labeled peptide kinase substrate (Z-LYTE, Invitrogen). For further characterization, a continuous spectrophotometric kinase activity assay was employed that is easily adapted to different substrate peptides as well as a wider range of peptide and ATP concentrations.

Experiment [4] concerns the target T3, Abl (Homo sapiens, UniProt P00519).
T3 construct: human c-Abl (residues 229-512); made in house
T3 sequence (P00519 229-512): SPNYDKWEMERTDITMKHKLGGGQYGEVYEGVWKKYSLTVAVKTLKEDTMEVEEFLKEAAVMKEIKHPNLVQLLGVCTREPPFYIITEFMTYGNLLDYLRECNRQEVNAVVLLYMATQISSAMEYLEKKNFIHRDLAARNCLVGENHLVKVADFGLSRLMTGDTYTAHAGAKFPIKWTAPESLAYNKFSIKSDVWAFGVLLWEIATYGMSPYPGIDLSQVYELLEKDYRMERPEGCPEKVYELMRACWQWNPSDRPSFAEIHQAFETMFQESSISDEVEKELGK
Described as above. The class given is biochemical.
From the text: as §2, §3, §4

In experiment [5] the target is T4, Src kinase domain (chicken c-Src residues 251-533) (Gallus gallus, UniProt P00523).
T4 construct: chicken c-Src (residues 251-533 and residues 83-533); made in house
Described as above. The class given is biochemical. As to conditions: for IC50: Src kinase domain.
From the text: as §2, §3, §4

In experiment [6] the target is HCK (Homo sapiens, UniProt P08631). The description is as above. The class given is biochemical. On the set-up: Kinase domain constructs of human c-Abl (residues 229-512), chicken c-Src (residues 251-533 and residues 83-533), murine Lck (residues 227-509), and human Hck (residues 166-445); made in house.
HCK, sequence (P08631 262-515 limits assumed): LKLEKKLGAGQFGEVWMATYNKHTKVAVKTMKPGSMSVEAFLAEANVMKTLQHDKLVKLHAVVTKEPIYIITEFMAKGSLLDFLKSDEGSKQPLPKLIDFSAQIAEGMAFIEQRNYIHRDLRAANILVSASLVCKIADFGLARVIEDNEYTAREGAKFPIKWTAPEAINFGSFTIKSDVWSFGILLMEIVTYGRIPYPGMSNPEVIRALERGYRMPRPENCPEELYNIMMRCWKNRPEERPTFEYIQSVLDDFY
From the text: as §2, §3, §4

The test system of experiment [7] is Src Thr338Ile. The experiment in a line: Inhibition of Src gatekeeper mutant. The class given is biochemical, chicken.
From the text: as §2, §1

For experiment [8], the target named is VEGFR2 (KDR) (Homo sapiens, UniProt P35968). The experiment in a line: Z'-LYTE kinase assay (Invitrogen SelectScreen). The class given is biochemical. The text has this:
(§5) Macrocycles A10-B1-C11-D5 and A10-B8-C11-D5 were enriched 2- to 6-fold upon selection for binding Akt3, MAPKAPK2, Pim1, and VEGFR2 (FIG. 6). These two macrocycles are structurally similar, sharing nitrophenylalanine (A10) and cyclohexylstatine (C11) building blocks as well as the same lysine scaffold (D5), and differ only at the B building block with either furylalanine (B1) or cyclohexylalanine (B8) (FIG. 6). For assay purposes, the macrocycles were synthesized with C-terminal PEG-diamine linkers to aid solubility, and then tested for the ability to inhibit Akt3, MAPKAPK2, Pim1 and VEGFR2.
(§6) Src IC50 determinations and single-point inhibition measurements were performed using Invitrogen's Z′-LYTE Tyr 02 assay kit according to the manufacturer's protocols. All kinase assays were performed at ATP concentrations near KM,ATP values, except where noted otherwise. Active human Src kinase was obtained from Millipore. For kinome profiling and IC50 determinations against non-Src kinases, compounds were submitted to Invitrogen's SelectScreen Kinase Profiling Service.

Experiment [9] deals with Akt3 (Homo sapiens, UniProt Q9Y243). The experiment in a line: Z'-LYTE kinase assay (Invitrogen SelectScreen). The class given is biochemical.
Akt3, sequence (Q9Y243 whole entry): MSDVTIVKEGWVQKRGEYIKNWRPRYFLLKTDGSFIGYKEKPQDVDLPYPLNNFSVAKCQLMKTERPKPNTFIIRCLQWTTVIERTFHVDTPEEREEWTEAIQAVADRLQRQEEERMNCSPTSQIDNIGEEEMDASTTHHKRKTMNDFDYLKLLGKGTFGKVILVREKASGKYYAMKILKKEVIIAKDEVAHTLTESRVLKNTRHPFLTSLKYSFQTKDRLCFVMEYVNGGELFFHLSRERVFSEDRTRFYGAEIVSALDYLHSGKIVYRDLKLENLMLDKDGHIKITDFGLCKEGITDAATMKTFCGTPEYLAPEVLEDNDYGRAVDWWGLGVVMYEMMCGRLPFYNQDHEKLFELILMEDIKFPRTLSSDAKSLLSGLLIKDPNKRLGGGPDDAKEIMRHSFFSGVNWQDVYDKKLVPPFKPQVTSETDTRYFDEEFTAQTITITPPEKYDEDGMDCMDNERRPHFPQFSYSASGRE
From the text: as §5, §6

In experiment [10] the target is MAPKAPK2 (MK2) (Homo sapiens, UniProt P49137). The experiment in a line: Z'-LYTE kinase assay (Invitrogen SelectScreen). The class given is biochemical. The conditions noted are these: for IC50: MK2 (MAPKAPK2).
MAPKAPK2 (MK2), sequence (P49137 whole entry): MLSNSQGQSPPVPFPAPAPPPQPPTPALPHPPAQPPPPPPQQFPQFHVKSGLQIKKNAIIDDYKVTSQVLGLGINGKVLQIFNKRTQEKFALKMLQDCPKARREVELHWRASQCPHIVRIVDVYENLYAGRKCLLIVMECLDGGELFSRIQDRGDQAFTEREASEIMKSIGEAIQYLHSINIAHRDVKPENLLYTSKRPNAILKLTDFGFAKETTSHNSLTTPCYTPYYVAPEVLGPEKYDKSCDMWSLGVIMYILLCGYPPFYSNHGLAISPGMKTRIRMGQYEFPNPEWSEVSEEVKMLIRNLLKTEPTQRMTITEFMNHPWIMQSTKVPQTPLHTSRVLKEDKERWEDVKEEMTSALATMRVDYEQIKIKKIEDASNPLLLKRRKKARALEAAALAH
From the text: as §5, §6

For experiment [11], the target named is Pim1 (Homo sapiens, UniProt P11309). Description: Z'-LYTE kinase assay (Invitrogen SelectScreen). The class given is biochemical. The conditions noted are these: for IC50: Pim1.
Pim1, sequence (P11309 whole entry): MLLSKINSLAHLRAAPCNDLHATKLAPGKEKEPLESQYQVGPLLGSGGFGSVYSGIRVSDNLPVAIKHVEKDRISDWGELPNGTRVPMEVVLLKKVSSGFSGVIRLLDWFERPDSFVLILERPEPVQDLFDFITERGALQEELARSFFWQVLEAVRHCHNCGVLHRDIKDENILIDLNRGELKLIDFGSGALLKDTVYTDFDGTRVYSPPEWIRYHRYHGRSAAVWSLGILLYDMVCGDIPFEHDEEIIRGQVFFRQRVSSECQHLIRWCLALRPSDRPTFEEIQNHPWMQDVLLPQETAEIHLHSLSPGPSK
From the text: as §5, §6

Experiment [12] deals with p38α-MAPKAPK2 kinase cascade (P38α-MK2) (Homo sapiens, UniProt P49137+Q16539). The experiment in a line: Z'-LYTE kinase cascade assay (Invitrogen SelectScreen). The class given is biochemical.
p38α-MAPKAPK2 kinase cascade (P38α-MK2), sequence (Q16539 whole entry): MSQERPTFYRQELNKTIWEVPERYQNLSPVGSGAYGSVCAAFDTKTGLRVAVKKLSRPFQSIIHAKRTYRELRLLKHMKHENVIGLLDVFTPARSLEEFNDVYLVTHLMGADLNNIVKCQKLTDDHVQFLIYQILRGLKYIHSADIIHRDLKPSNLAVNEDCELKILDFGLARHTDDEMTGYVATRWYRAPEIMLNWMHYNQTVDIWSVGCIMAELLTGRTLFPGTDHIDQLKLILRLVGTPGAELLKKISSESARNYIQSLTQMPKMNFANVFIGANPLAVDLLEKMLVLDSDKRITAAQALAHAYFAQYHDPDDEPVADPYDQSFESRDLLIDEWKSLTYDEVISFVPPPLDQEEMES
p38α-MAPKAPK2 kinase cascade (P38α-MK2), sequence (P49137 whole entry): as the sequence (P49137 whole entry) above
From the text: as §5, §6

Where [13] appears, read: 5 μM ATP, 100 μM Src optimal peptide.
[14] abbreviates: 5 μM ATP, 100 μM Src optimal peptide, listed as Macrocycle 1.2.
The mark [15] stands for this setting: 5 μM ATP, 300 μM Src optimal peptide.
The mark [16] stands for this setting: 250 μM ATP, 300 μM Src optimal peptide.
Where [17] appears, read: 10 or 100 μM macrocycle overnight.

VEGFR2 (KDR), sequence (P35968 20-1356): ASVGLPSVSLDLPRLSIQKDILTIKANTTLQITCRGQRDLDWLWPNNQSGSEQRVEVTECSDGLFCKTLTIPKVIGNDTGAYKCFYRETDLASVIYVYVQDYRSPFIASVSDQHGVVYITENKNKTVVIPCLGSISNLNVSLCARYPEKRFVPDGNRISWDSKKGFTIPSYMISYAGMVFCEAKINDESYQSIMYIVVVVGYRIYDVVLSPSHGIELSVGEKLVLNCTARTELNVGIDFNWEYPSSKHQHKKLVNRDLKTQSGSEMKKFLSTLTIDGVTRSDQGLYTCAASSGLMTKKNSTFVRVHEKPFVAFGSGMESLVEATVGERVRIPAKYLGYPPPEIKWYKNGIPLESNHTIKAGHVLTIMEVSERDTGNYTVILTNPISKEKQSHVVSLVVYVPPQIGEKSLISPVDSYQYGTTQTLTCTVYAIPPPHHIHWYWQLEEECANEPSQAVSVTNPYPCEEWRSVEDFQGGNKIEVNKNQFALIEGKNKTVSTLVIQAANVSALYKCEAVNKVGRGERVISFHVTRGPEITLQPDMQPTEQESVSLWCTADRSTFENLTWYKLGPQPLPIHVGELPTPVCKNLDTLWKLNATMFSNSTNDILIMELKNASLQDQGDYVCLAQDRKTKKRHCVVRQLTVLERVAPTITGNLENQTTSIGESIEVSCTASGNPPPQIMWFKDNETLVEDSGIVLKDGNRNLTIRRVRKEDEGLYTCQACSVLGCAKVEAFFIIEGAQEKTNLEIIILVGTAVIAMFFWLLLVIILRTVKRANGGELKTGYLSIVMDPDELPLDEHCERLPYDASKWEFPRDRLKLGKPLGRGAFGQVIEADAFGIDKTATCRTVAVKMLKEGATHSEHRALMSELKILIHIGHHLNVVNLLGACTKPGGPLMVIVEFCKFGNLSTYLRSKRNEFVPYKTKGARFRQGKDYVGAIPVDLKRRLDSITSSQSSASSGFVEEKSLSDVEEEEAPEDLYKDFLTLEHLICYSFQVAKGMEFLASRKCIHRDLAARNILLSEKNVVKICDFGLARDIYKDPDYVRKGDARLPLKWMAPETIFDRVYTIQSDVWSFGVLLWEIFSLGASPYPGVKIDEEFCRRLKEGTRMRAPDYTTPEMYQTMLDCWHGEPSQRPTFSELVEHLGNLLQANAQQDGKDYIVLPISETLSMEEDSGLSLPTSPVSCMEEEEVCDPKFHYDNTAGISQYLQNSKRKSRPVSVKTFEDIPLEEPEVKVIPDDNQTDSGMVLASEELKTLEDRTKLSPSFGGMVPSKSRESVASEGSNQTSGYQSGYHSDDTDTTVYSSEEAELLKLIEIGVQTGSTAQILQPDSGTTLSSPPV

For the compound `O=C1/C=C\C(=O)N[C@@H](CC2CCCCC2)C(=O)N[C@@H](Cc2ccccc2)C(=O)N[C@@H](CCCNC(=O)c2cnccn2)C(=O)NCC[C@@H](C(=O)O)N1` [MC1.2], the “reduction of global tyrosine phosphorylation (in words)” value in [1] (100 μM) was “did not reduce global tyrosine phosphorylation”. Also, in [2], the “increase in Src inhibition potency relative to parent macrocycle” value is reported as > 150 fold. Besides, the IC50 was ≤ 4 nM in experiment [2]; 4000 nM in experiment [3] (setting [13]); ≤ 870 nM in [3] (setting [14]); 1900 nM in experiment [3] (setting [15]); 2400 nM in experiment [3] (setting [16]); > 100 µM in [4] (setting [13]). Also, the IC50 is > 100 µM in [4] (setting [15]); > 100 µM in experiment [4] (setting [16]); 70 nM in experiment [5] (setting [13]); ≤ 70 nM in experiment [5] (setting [14]); 120 nM in experiment [5] (setting [15]); 140 nM in [5] (setting [16]). Moreover, the IC50 in experiment [6] (setting [13]) is 360 nM; in experiment [6] (setting [14]), ≤ 360 nM; in [6] (setting [15]), 460 nM; in [6] (setting [16]), 1000 nM. The “increase in IC50 upon increasing substrate peptide 3-fold to 300 μM” value in [5] (Src optimal substrate peptide 100 to 300 μM) worked out at 50%.
`NC(=O)[C@@H]1CCCNC(=O)[C@H](Cc2ccc([N+](=O)[O-])cc2)NC(=O)[C@H](Cc2ccccc2)NC(=O)[C@H](CC2CCCCC2)NC(=O)/C=C/C(=O)N1` [MC4.2]: the “reduction of global phosphotyrosine levels (in words)” value in experiment [1] (setting [17]) is listed as “modest reduction”. For the same compound, the EC50 in [1] (overnight treatment, serum-free DMEM, read-out: EC50 of reduction of global phosphotyrosine levels) was > 100 µM. Further, the “increase in Src inhibition potency relative to parent macrocycle” value in [2] was > 10 fold. The IC50 in experiment [2] came out at 6 nM; in [5] (setting [13]), 600 nM. Besides, the “inhibition of Src Thr338Ile gatekeeper mutant (in words)” value in [7] is on record as “retained their inhibition potency”.
Consider `NC(=O)[C@@H]1CCCNC(=O)[C@H](Cc2ccc([N+](=O)[O-])cc2)NC(=O)[C@H](Cc2ccc(F)cc2)NC(=O)[C@H](CC2CCCCC2)NC(=O)/C=C/C(=O)N1` [MC4.3], for which the “reduction of global phosphotyrosine levels (in words)” value in experiment [1] (setting [17]) was “higher levels of tyrosine phosphorylation inhibition”. The “Src inhibition relative to parent compound (in words)” value in [2] is listed as “retained all of the parent compound activity”. In addition, the “inhibition of Src Thr338Ile gatekeeper mutant (in words)” value in experiment [7] is on record as “retained their inhibition potency”.
Regarding `CC(C)(C)n1nc(-c2ccc(Cl)cc2)c2c(N)ncnc21` [PP2, reference compound], in experiment [1] (10 μM), the “reduction of global phosphotyrosine levels (in words)” value is listed as “reduction of global phosphotyrosine to levels comparable with those observed in the cells transfected with empty vector”.
For `NCCOCCOCCNC(=O)[C@@H]1CCCCNC(=O)[C@H](Cc2ccc([N+](=O)[O-])cc2)NC(=O)[C@H](Cc2ccco2)NC(=O)C[C@H](O)[C@H](CC2CCCCC2)NC(=O)/C=C\C(=O)N1` [cis-A10-B1-C11-D5], the results for the “increase of VEGFR2 enzyme activity” value in experiment [8] (10 μM macrocycle) and in [8] (100 μM compound) were 70% and 300%, respectively. In addition, in experiment [9] (isolated kinase enzyme), the “inhibition of Akt3 (in words)” value is “did not inhibit”. The “inhibition of MAPKAPK2 (in words)” value in [10] (isolated kinase enzyme) is on record as “did not inhibit”. Moreover, in experiment [11] (isolated kinase enzyme, non-DNA-linked form), the “inhibition of Pim1 (in words)” value is on record as “did not inhibit”. The half-maximal inhibitory concentration (IC50) in experiment [12] is 6.4 µM and 6.5 µM.
Consider `NCCOCCOCCNC(=O)[C@@H]1CCCCNC(=O)[C@H](Cc2ccc([N+](=O)[O-])cc2)NC(=O)[C@H](CC2CCCCC2)NC(=O)C[C@H](O)[C@H](CC2CCCCC2)NC(=O)/C=C\C(=O)N1` [cis-A10-B8-C11-D5], for which the half-inhibitory concentration (IC50) in [9] (Akt3) is 8.7 µM and 8.4 µM; in experiment [10], 6.1 µM; in [11], 7.5 µM and 7.3 µM; in [12] it was 3.4 µM.
Regarding `NCCOCCOCCNC(=O)[C@@H]1CNC(=O)[C@@H](Cc2ccc(C(=O)c3ccccc3)cc2)NC(=O)[C@H](CC2CCCCC2)NC(=O)[C@H](C/C=C/c2ccccc2)NC(=O)/C=C\C(=O)N1` [cis-A12-B8-C10-D8], the IC50 in [10] was found to be 47 µM; in experiment [11] it was 17 µM; in experiment [12] it was 14 µM.

A word on the IC50: it is the point on the concentration scale where inhibition reaches its midpoint. In general, EC50 refers to the concentration giving half of the maximal effect.
